# The source made the active and inactive calls. No cut-off for these calls is given here.
# Tests used:
# CCRF-CEM = assay: Cytotoxicity against vinblastine-resistant human CCRF-CEM cells assessed as growth inhibition after 72 hrs by Alamar Blue assay; type: functional, cell-based
# [1] = Cytotoxicity against human PC3 cells assessed as growth inhibition after 72 hrs by Alamar Blue assay; type: functional, cell-based; settings: PC-3, 72 h
# [2] = Cytotoxicity against human HCT116 cells assessed as growth inhibition after 72 hrs by Alamar Blue assay; type: functional, cell-based; settings: HCT-116, 72 h
# [3] = Cytotoxicity against human H3347 cells assessed as growth inhibition after 72 hrs by Alamar Blue assay; type: functional, cell-based; settings: H3347, 72 h
# [4] = Antitumor activity against human H3347 cells xenografted in nude mouse assessed as tumor growth inhibition at 30 mg/kg,iv qd administered for 6 days measured on day 31 relative to control; type: functional; settings: read-out: TGI
# [5] = Antitumor activity against human PC3 cells xenografted in nude mouse assessed as tumor growth inhibition at 30 mg/kg,iv qd administered for 6 days measured on day 21 relative to control; type: functional, PC-3
# [6] = Antitumor activity against human PC3 cells xenografted in nude mouse assessed as tumor growth inhibition at 50 mg/kg,iv administered every 2 days for 5 doses measured on day 24 to 28 relative to control; type: functional, PC-3
# [7] = Antitumor activity against human H460 cells xenografted in nude mouse assessed as tumor growth inhibition at 30 mg/kg,iv qd administered for 6 days measured on day 19 to 26 relative to control; type: functional, NCI-H460
# [8] = Antitumor activity against human PC3 cells xenografted in nude mouse assessed as tumor growth inhibition at 40 mg/kg,iv administered every 2 days for 5 doses measured on day 38 relative to control; type: functional; settings: PC-3, iv, read-out: TGI
# Mus musculus [9] = assay: Toxicity in nude mouse xenografted with human PC3 cells assessed as body weight loss at 50 mg/kg,iv administered every 2 days for 5 doses measured on day 16 relative to control; type: organism-based, PC-3; design: dose 50 mg/kg; settings: in vivo, 48 h
# Mus musculus [10] = assay: Toxicity in nude mouse xenografted with human H460 cells assessed as body weight loss at 30 mg/kg,iv qd administered for 6 days measured on day 15 relative to control; type: organism-based; design: dose 30 mg/kg; settings: in vivo, 144 h
# Mus musculus [11] = assay: Toxicity in nude mouse xenografted with human HCT116 cells assessed as change in body weight at 30 mg/kg,iv qd administered for 6 days measured on day 31 relative to control; type: organism-based, HCT-116; design: dose 30 mg/kg; settings: in vivo, 144 h
# Mus musculus [12] = assay: Toxicity in nude mouse xenografted with human PC3 cells assessed as change in body weight at 30 mg/kg,iv qd administered for 6 days measured on day 31 relative to control; type: organism-based, PC-3; design: dose 30 mg/kg; settings: in vivo, 144 h
# Mus musculus [13] = assay: Toxicity in nude mouse xenografted with human PC3 cells assessed as change in body weight at 50 mg/kg,iv administered every 2 days for 5 doses measured on day 38 relative to control; type: organism-based, PC-3; design: dose 50 mg/kg; settings: in vivo, 48 h
# Mus musculus [14] = assay: Toxicity in nude mouse xenografted with human H460 cells assessed as body weight loss at 30 mg/kg,iv qd administered for 6 days measured on day 37 relative to control; type: organism-based; design: dose 30 mg/kg; settings: in vivo, 144 h
# PC-3 [15] = assay: Antitumor activity against human PC3 cells xenografted in nude mouse assessed as survival at 30 mg/kg,iv qd administered for 6 days; type: functional, organism-based; design: dose 30 mg/kg
# PC-3 [16] = assay: Antitumor activity against human PC3 cells xenografted in iv dosed nude mouse assessed as tumor growth inhibition; type: functional, organism-based
# [17] = Antitumor activity against human HCT116 cells xenografted in nude mouse assessed as tumor growth inhibition at 75 mg/kg,[…] ip administered every 7 days for 2 doses relative to control; type: functional; settings: HCT-116, ip, 168 h, route intraperitoneal, read-out: TGI
# [18] = Cell cycle arrest in human HCT116 cells assessed as accumulation at G1 phase at 1 uM after 24 hrs by FACS flow cytometric analysis (reference value: 48.75 +/- 3.69%); type: functional, cell-based; settings: HCT-116
# [19] = Cell cycle arrest in human HCT116 cells assessed as accumulation at sub-G1 phase at 2 uM after 24 hrs by FACS flow cytometric analysis (reference value: 1.37 +/- 0.95%); type: functional, cell-based; settings: HCT-116
# [20] = Cell cycle arrest in human HCT116 cells assessed as accumulation at S phase at 2 uM after 24 hrs by FACS flow cytometric analysis (reference value: 18.71 +/- 2.25%); type: functional, cell-based; settings: HCT-116
# [21] = Cell cycle arrest in human HCT116 cells assessed as accumulation at S phase at 1 uM after 48 hrs by FACS flow cytometric analysis (reference value: 12.11 +/- 4.28%); type: functional, cell-based; settings: HCT-116
# [22] = Cell cycle arrest in human HCT116 cells assessed as accumulation at sub-G1 phase at 2 uM after 48 hrs by FACS flow cytometric analysis (reference value: 1.65 +/- 0.06%); type: functional, cell-based; settings: HCT-116
# [23] = Cell cycle arrest in human HCT116 cells assessed as accumulation at sub-G1 phase at 4 uM after 48 hrs by FACS flow cytometric analysis (reference value: 1.65 +/- 0.06%); type: functional, cell-based; settings: HCT-116
# [24] = Cell cycle arrest in human HCT116 cells assessed as accumulation at G1 phase at 4 uM after 48 hrs by FACS flow cytometric analysis (reference value: 62.16 +/- 5.94%); type: functional, cell-based; settings: HCT-116
# [25] = Cell cycle arrest in human HCT116 cells assessed as accumulation at S phase at 4 uM after 48 hrs by FACS flow cytometric analysis (reference value: 12.11 +/- 4.28%); type: functional, cell-based; settings: HCT-116
# [26] = Cell cycle arrest in human HCT116 cells assessed as accumulation at G2/M phase at 4 uM after 48 hrs by FACS flow cytometric analysis (reference value: 23.95 +/- 1.87%); type: functional, cell-based; settings: HCT-116
# [27] = Cell cycle arrest in human HCT116 cells assessed as accumulation at G2/M phase at 1 uM after 72 hrs by FACS flow cytometric analysis (reference value: 12.82 +/- 2.19%); type: functional, cell-based; settings: HCT-116
# [28] = Cell cycle arrest in human HCT116 cells assessed as accumulation at sub-G1 phase at 2 uM after 72 hrs by FACS flow cytometric analysis (reference value: 3.29 +/- 1.39%); type: functional, cell-based; settings: HCT-116
# HCT-116 [29] = assay: Induction of apoptosis in human HCT116 cells assessed as caspase-3 cleavage at 1 to 4 uM after 24 hrs by Western blot analysis; type: functional, cell-based
# HCT-116 [30] = assay: Induction of apoptosis in human HCT116 cells assessed as PARP cleavage at 1 to 4 uM after 24 hrs by Western blot analysis; type: functional, cell-based
# Mus musculus [31] = assay: Toxicity in iv dosed CD-1 (ICR) mouse assessed as hypoactivity measured for 14 days; type: organism-based; settings: in vivo, 336 h
# Mus musculus [32] = assay: Toxicity in iv dosed CD-1 (ICR) mouse assessed as soft feces measured for 14 days; type: organism-based; settings: in vivo, 336 h
# Mus musculus [33] = assay: Toxicity in iv dosed CD-1 (ICR) mouse assessed as feces stain measured for 14 days; type: organism-based; settings: in vivo, 336 h
# Mus musculus [34] = assay: Toxicity in iv dosed CD-1 (ICR) mouse assessed as dehydration measured for 14 days; type: organism-based; settings: in vivo, 336 h
# Mus musculus [35] = assay: Toxicity in CD-1 (ICR) mouse assessed as gross lesions in spleen at 150 mg/kg, iv measured for 14 days; type: organism-based; design: dose 150 mg/kg, route intravenous; settings: in vivo, 336 h
# [36] = Toxicity in iv dosed CD-1 (ICR) mouse measured for 14 days; type: organism-based; settings: in vivo
# [37] = target: Voltage-gated inwardly rectifying potassium channel KCNH2 (Homo sapiens, UniProt Q12809); assay: Binding affinity to human ERG after 4 hrs by fluorescence polarization assay
# Voltage-gated inwardly rectifying potassium channel KCNH2, sequence (Q12809 whole entry): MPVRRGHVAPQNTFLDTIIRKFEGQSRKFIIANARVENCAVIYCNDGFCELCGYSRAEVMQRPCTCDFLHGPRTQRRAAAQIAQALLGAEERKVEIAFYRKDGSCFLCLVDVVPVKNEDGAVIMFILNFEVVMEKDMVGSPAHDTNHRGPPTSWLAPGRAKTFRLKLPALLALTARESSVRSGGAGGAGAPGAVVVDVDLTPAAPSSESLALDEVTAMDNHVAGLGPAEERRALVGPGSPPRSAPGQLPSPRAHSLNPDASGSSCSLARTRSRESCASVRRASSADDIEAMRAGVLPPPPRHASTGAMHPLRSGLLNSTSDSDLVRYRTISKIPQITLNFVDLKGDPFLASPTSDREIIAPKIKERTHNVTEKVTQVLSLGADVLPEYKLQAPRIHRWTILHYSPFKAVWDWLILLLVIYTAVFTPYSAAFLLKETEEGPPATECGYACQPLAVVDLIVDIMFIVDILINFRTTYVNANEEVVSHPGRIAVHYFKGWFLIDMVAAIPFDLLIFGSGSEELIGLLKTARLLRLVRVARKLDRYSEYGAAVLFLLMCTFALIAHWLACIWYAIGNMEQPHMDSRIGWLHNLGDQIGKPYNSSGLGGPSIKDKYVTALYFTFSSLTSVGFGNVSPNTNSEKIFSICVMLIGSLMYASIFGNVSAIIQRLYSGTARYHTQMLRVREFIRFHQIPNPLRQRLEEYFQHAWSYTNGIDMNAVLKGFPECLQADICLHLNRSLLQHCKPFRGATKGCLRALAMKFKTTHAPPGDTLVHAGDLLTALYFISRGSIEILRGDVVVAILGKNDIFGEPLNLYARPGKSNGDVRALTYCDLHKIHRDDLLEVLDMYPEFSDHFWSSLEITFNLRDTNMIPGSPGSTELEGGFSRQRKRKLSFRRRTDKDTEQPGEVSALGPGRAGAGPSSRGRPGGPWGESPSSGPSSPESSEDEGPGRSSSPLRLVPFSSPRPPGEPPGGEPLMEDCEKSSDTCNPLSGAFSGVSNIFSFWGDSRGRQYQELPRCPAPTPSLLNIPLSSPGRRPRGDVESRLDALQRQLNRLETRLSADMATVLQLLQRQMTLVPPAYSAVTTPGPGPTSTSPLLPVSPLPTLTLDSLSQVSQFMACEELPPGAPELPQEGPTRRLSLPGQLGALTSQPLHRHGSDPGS
structure (smiles),measurement,setting,value
CCN(CC)CC(=O)Nc1ccc(NC(=O)Nc2ccc(N(CCCl)CCCl)cc2)cc1,IC50,CCRF-CEM,2160 nM
same,IC50,[1],3570 nM
same,IC50,[2],820 nM
same,IC50,[3],870 nM
same,inhibition in vivo at 30 mg/kg,[4],90%
same,%max,[5],56%
same,%max,[6],88%
same,%max,[7],61%
same,inhibition in vivo at 40 mg/kg,[8],3%
same,%max,Mus musculus [9],-16%
same,%max,Mus musculus [10],-18%
same,Activity,Mus musculus [11],9%
same,Activity,Mus musculus [12],-28%
same,Activity,Mus musculus [13],-8%
same,Activity,Mus musculus [14],-5%
same,Activity,PC-3 [15],Active
same,TGI,PC-3 [16],Dose-dependent effect
same,inhibition in vivo at 75 mg/kg,[17],54%
same,Activity,[18],17.3%
same,Activity,[19],1.55%
same,Activity,[20],23.9%
same,Activity,[21],11.9%
same,Activity,[22],8.48%
same,Activity,[23],10.5%
same,Activity,[24],19%
same,Activity,[25],16.6%
same,Activity,[26],54.1%
same,Activity,[27],20.5%
same,Activity,[28],19.7%
same,Activity,HCT-116 [29],Active
same,Activity,HCT-116 [30],Active
same,Activity,Mus musculus [31],Dose-dependent effect
same,Activity,Mus musculus [32],Dose-dependent effect
same,Activity,Mus musculus [33],Dose-dependent effect
same,Activity,Mus musculus [34],Dose-dependent effect
same,Activity,Mus musculus [35],Toxic
same,LD50 at 336 h,[36],115 mg/kg
same,Activity,[37],4.48 µM
